According to patent US11993640B2, “Treating inflammatory lung disease” (United States Government as represented by the Department …, priority 2019, dated 2024):
Non-standard residues stand in square brackets, D forms with d. Residues, ends and D or L forms follow the SMILES beside them. *: point of attachment. Phe(4-Cl) = N[C@@H](Cc1ccc(Cl)cc1)C(=O)O; hArg = N=C(N)NCCCC[C@H](N)C(=O)O; 12Ado = NCCCCCCCCCCCC(=O)O; Nle = CCCC[C@H](N)C(=O)O; Orn = NCCC[C@H](N)C(=O)O; Abu = CC[C@H](N)C(=O)O; PhAc = O=C(Cc1ccccc1)*

Columns and labels:
Assay type in all cases: cell-based, human
Settings in all cases: 5 μM, 72 h; relative to MIA602 = 1; Table 3A
RT4 cells = assay: In vitro cell viability, urothelial cancer RT4
Description: (§1) The inhibitory effects of the various synthesized GHRH antagonists were tested in cell proliferation assays in various human cancer cell lines including stomach cancer (KATOIII, N87), colon cancer (HT-29), urothelial cancer (J82, RT4), pancreatic cancer (PANC-1, CFPAC-1), prostatic cancer (PC3), breast cancer (MX-1, HCC1806), ovarian cancer (SK-OV-3, OVCAR-3) and lung cancer (HCC827, H460).
(§2) Cell culture. Human cancer cell lines including pancreatic (PANC-1 and CFPAC-1), lung (HCC827 and H460), stomach (NCI-N87 and KATOIII), urothelial (J82, RT4), prostatic (PC3), breast (MX-1 and HCC 1806), colorectal (HT-29), and ovarian (SK-OV-3 and OVCAR-3) were obtained from the American Type Culture Collection (ATCC) and cultured at 37° C. in a humidified 95% air/5% CO2 atmosphere in the medium recommended by ATCC.
(§3) In vitro cell viability. Cell viability was analyzed as follows: cancer cells including pancreatic (PANC-1 and CFPAC-1), lung (HCC827 and H460), stomach (NCI-N87 and KATOIII), urothelial (J82, RT4), prostatic (PC3) and breast (MX-1 and HCC 1806), colorectal (HT-29) and ovarian (SK-OV-3 and OVCAR-3) were grown on 96 well plates to ˜60% confluence, the cells were starved for 24 h in culture medium containing 0.5% FBS. Cells were then treated with GHRH antagonists MIA602 AVR compounds at concentrations of 1, 2.5 or 5 μM, or vehicle (0.1% DMSO) in quintuplicates for 72 hours. The medium was replaced every 48 hours. Cell viability was measured using CellTiter 96 aqueous one solution kit (Promega). Inhibitory effects of tested AVR compounds in comparison to that of MIA602 are presented as inhibitory potency.
(§4) Inhibitory effects of selected AVR compounds in comparison to that of MIA602 are presented as inhibitory potency (e.g., percentage of inhibition). […] The cell lines tested including lung cancer HCC827 (FIG. 2A), pancreatic cancer CFPAC-1 (FIG. 2B), stomach cancer N87 (FIG. 2C), colon cancer HT-29 (FIG. 2D), breast cancers MX-1 and HCC1806 (FIGS. 2E, F). […]

CFPAC-1 cells = assay: In vitro cell viability, pancreatic cancer CFPAC-1
In short: (§5)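 Cells grown to ~60% confluence and serum-starved 24 h in 0.5% FBS, then exposed to antagonists at 5 μM (some at 2 μM) for 72 h in quintuplicate, with medium replaced every 48 h. Viability read by CellTiter 96 AQueous One (MTS). Values are inhibition relative to MIA602.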

HCC1806 cells = assay: In vitro cell viability, breast cancer HCC1806
Description: as §1, §2, §3
(§6) Inhibitory effects of selected AVR compounds in comparison to that of MIA602 are presented as inhibitory potency (e.g., percentage of inhibition). […] The cell lines tested including lung cancer HCC827 (FIG. 2A), pancreatic cancer CFPAC-1 (FIG. 2B), stomach cancer N87 (FIG. 2C), colon cancer HT-29 (FIG. 2D), breast cancers MX-1 and HCC1806 (FIGS. 2E, F). Based on the results of cell proliferation assay after cancer cells were treated with antagonist at concentration of 5 μM for 72H, the relative inhibitory potency of AVR antagonists in comparison to MIA-602 is summarized in Table 3 A and B. Over 60 AVR compounds were tested in 12 cancer cell lines.
(§7) Based on the results of cell proliferation assay after cancer cells were treated with antagonist at concentration of 5 µM for 72H, * at concentration of 2 µM for 72 H.

MX-1 cells = assay: In vitro cell viability, breast cancer MX-1
Description: as §1, §2, §3, §6, §7

PANC-1 cells = assay: In vitro cell viability, pancreatic cancer PANC-1
Description: as §1, §2, §3, §6

PC3 cells = assay: In vitro cell viability, prostatic cancer PC3
Description: as §1, §2, §3, §4

KATOIII cells = assay: In vitro cell viability, stomach cancer KATOIII
Description: as §1, §2, §3, §6

NCI-N87 cells = assay: In vitro cell viability (CellTiter 96), stomach cancer N87
Description: as §1, §2, §3, §6, §7

J82 cells = assay: In vitro cell viability, urothelial cancer J82
Description: as §1, §2, §3, §6

HCC827 cells = assay: In vitro cell viability, lung cancer HCC827
In short: as §5

SMILES | Relative inhibitory potency, Urothelial RT4 (RT4 cells) | Relative inhibitory potency, Pancreatic CFPAC-1 (CFPAC-1 cells) | Relative inhibitory potency, Breast HCC1806 (HCC1806 cells) | Relative inhibitory potency, Breast MX-1 (MX-1 cells) | Relative inhibitory potency, Pancreatic Panc-1 (PANC-1 cells) | Relative inhibitory potency, Prostatic PC3 (PC3 cells) | Relative inhibitory potency, Stomach KATOIII (KATOIII cells) | Relative inhibitory potency, Stomach N87 (NCI-N87 cells) | Relative inhibitory potency, Urothelial J82 (J82 cells) | Relative inhibitory potency, Lung HCC827 (HCC827 cells)
CCCC[C@H](NC(=O)[C@@H](NC(=O)[C@H](CC(=O)O)NC(=O)[C@H](CCC(N)=O)NC(=O)[C@H](CC(C)C)NC(=O)[C@H](CC(C)C)NC(=O)[C@H](CCCN)NC(=O)[C@H](Cc1c[nH]cn1)NC(=O)[C@H](C)NC(=O)[C@H](CO)NC(=O)[C@H](CC(C)C)NC(=O)[C@H](CCC(N)=O)NC(=O)[C@H](CC)NC(=O)[C@H](CC(C)C)NC(=O)[C@@H](NC(=O)[C@H](CCCCN)NC(=O)[C@H](CCCNC(=N)N)NC(=O)[C@H](Cc1ccc(OC)cc1)NC(=O)[C@H](CCCNC(=N)N)NC(=O)[C@H](C)NC(=O)[C@@H](NC(=O)[C@H](Cc1ccc(Cl)cc1)NC(=O)[C@@H](NC(=O)[C@H](C)NC(=O)[C@H](CC(=O)O)NC(=O)[C@@H](CCCNC(=N)N)NC(=O)[C@H](Cc1ccc(O)cc1)NC(=O)CCCCCCCCCCCNC(=O)Cc1ccccc1)[C@@H](C)CC)[C@@H](C)O)C(C)C)[C@@H](C)CC)C(=O)N[C@H](CCCNC(=N)N)C(=O)N[C@@H](CCCCNC(=N)N)C(N)=O [AVR-104, PhAC-Ada-Tyr-DArg-Asp-Ala-Ile-Cpa-Thr-Ala-Arg-Tyr(Me)-Arg-Lys-Val-Leu-Abu-Gln-Leu-Ser-Ala-His-Orn-Leu-Leu-Gln-Asp-Ile-Nle-DArg-Har-NH2] ({PhAc-12Ado}-Y[dR]DAI[Phe(4-Cl)]TARY(Me)RKVL[Abu]QLSAH[Orn]LLQDI[Nle][dR][hArg]-NH2) | 1.697 | 1.502 | 1.220 | 1.310 | 1.114 | 1.440 | 1.321 | 2.291 | 3.377 | 1.525
CCCC[C@H](NC(=O)[C@@H](NC(=O)[C@H](CC(=O)O)NC(=O)[C@H](CCC(N)=O)NC(=O)[C@H](CC(C)C)NC(=O)[C@H](CC(C)C)NC(=O)[C@H](CCCN)NC(=O)[C@H](Cc1c[nH]cn1)NC(=O)[C@H](C)NC(=O)[C@H](CO)NC(=O)[C@H](CC(C)C)NC(=O)[C@H](CCC(N)=O)NC(=O)[C@H](CC)NC(=O)[C@H](CC(C)C)NC(=O)[C@@H](NC(=O)[C@H](CCCCN)NC(=O)[C@H](CCCNC(=N)N)NC(=O)[C@H](Cc1ccc(OC)cc1)NC(=O)[C@H](CCCNC(=N)N)NC(=O)[C@H](C)NC(=O)[C@@H](NC(=O)[C@H](Cc1ccc(Cl)cc1)NC(=O)[C@@H](NC(=O)[C@H](C)NC(=O)[C@H](CC(=O)O)NC(=O)[C@@H](CCCNC(=N)N)NC(=O)[C@H](Cc1ccc(O)cc1)NC(=O)CCCCCCCCCCCNC(=O)[C@H](N)Cc1ccccc1)[C@@H](C)CC)[C@@H](C)O)C(C)C)[C@@H](C)CC)C(=O)N[C@H](CCCNC(=N)N)C(=O)N[C@@H](CCCCNC(=N)N)C(N)=O [AVR-120, D-Phe-Ada-Tyr-DArg-Asp-Ala-Ile-Cpa-Thr-Ala-Arg-Tyr(Me)-Arg-Lys-Val-Leu-Abu-Gln-Leu-Ser-Ala-His-Orn-Leu-Leu-Gln-Asp-Ile-Nle-DArg-Har-NH2] (H-[dF][12Ado]Y[dR]DAI[Phe(4-Cl)]TARY(Me)RKVL[Abu]QLSAH[Orn]LLQDI[Nle][dR][hArg]-NH2; N-terminus assumed) | 1.611 | 1.617 |  |  | 1.306 |  | 1.271 | 2.339 | 4.841 | 1.423
